These results are taken from publication PMC13576449, “Small-Molecule Activators of PRMT1: Discovery, SAR Analyses, and Proapoptotic Effects in Pancreatic Cancer Cells” (Journal of Medicinal Chemistry, 2026).

One assay relates to PaTu8988T cells. The assay is described as follows: CaspaseGlo 3/7 apoptosis assay, PaTu8988T. Format: cell-based, human. The settings on record: compound 10 μM, after 2 h gemcitabine 10 and 25 nM, 72 h. As for the experimental part:
(§1) 6 Effect of small-molecule modulators on gemcitabine-induced apoptosis and tumor growth of PDAC cells. […] After 2 h, gemcitabine (GEM) was added at increasing concentrations (10 and 25 nM) or not (−) for another incubation of 72 h. Subsequently, the luminescence-based caspase3/7 assay was performed. The activity of caspase 3/7 in treated cells was normalized to the activity measured in untreated cells (dark gray bar), which was set to 1 (mean SD, n = 6 for PANC-1 and n = 4 for PaTu8988T; *: p ≤ 0.05, **: p ≤ 0.01, ***: p ≤ 0.001, using the student t-test). […] After 24 h, gemcitabine (GEM, 1 μM) was added (+) or not (−) for another incubation of 48 h. Subsequently, the apoptotic cell fraction was quantified in % by flow cytometry using FITC-labeled Annexin V (AV) and propidium iodide (PI) staining (in B: mean ± SD, n = 6 for PANC-1 and n = 5 for PaTu8988T; **: p ≤ 0.01, ***: p ≤ 0.001, ****: p ≤ 0.0001, using the student t-test). […] Viable cells are AV/PI double-negative (AV–/PI–, lower left quadrant, Q4), early apoptotic cells are AV single-positive (AV+/PI– upper left quadrant, Q1), late apoptotic cells are AV/PI double-positive (AV+/PI+, upper right quadrant, Q2), and necrotic cells are PI single-positive (AV–/PI+, lower right quadrant, Q3). The sum of early and late apoptotic cell numbers ([…] in %) is indicated in red. D-G: The workflow of the PDAC xenograft experiments in mice is depicted in D. PANC-1 cells (2 × 10^6 cells/mouse) were subcutaneously (s.c.) injected in the right flank of female athymic nude mice. Small tumor nodules appeared 6 days post-engraftment. […] Tumor volumes were measured every second day using a digital caliper. […] At the end of the 2 weeks, mice were sacrificed and tumors were dissected (F).
(§2) For quantification of apoptosis using the CaspaseGlo 3/7 assay (Promega), PANC-1 and PaTu8988T cells were seeded in triplicates in white 96-well plate (5 × 10^3 cells/well) and cultured in the absence or presence of compounds. After 2 h, as soon as the cells had settled, gemcitabine was added or not, and cells were incubated for another 72 h. Subsequently, the caspase3/7 activity was measured using the luminescence-based CaspaseGLO-3/7 assay (Promega). To this end, the CaspaseGlo reagent was subsequently added to the cells at a 1:1 ratio and incubated at room temperature and under agitation for 30 min protected from light. The luminescence measurements were carried out using a microplate reader (Mithras LB 940, Berthold).

A further assay deals with PANC-1 cells. The assay is described as follows: CaspaseGlo 3/7 apoptosis assay, PANC-1. Format: cell-based, human. The settings on record: compound 10 μM, after 2 h gemcitabine 10 and 25 nM, 72 h. As for the experimental part:
as §1, §2

For the next assay, the target named is T1, FLAG-tagged PRMT3 (Homo sapiens, UniProt O60678).
T1 construct: The complete ORFs of human PRMT3 and PRMT6 were inserted; made in house; host or cells: Sf9 insect cells (baculovirus)
T1 sequence (O60678 whole entry): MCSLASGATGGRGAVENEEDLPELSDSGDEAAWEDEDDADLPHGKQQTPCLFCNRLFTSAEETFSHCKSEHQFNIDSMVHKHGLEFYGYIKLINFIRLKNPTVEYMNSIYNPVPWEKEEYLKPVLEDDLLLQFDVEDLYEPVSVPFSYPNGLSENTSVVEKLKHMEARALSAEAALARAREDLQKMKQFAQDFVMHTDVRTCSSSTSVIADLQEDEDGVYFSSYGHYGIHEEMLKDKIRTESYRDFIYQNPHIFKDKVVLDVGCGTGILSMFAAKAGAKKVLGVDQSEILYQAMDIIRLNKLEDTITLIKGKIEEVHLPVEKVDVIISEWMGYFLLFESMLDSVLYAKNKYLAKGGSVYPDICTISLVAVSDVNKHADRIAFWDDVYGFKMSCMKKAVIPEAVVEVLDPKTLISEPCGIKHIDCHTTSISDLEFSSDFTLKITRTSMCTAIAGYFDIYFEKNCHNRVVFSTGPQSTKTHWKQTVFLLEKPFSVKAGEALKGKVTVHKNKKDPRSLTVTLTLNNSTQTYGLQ
The assay is described as follows: Fluorescence-based in vitro PRMT assay (F-PRMT assay), PRMT3. The format is biochemical. The settings on record: Table S3, 100 µM compound, n≥3; for Experimental result (PRMT3): vs solvent control = 100%. The source says: To evaluate the effects of the selected candidate molecules on the catalytic activity of type I enzymes, we employed a quantitative fluorescence-based in vitro PRMT activity (F-PRMT) assay using recombinant FLAG-tagged PRMT proteins expressed and affinity-purified from baculovirus-infected Sf9 cells (SI Figure S1, SI Figure S2A).
Human cell lines (PaTu8988T, PANC-1) were obtained from ATCC (American Type Culture Collection) and cultured in DMEM supplemented with 10% fetal calf serum (FCS, Gibco/BRL), 1% penicillin/streptomycin at 37 °C and 5% CO2. […] For PRMT1 inhibition, cells were treated with type I PRMT inhibitor MS023 hydrochloride (Biomol). For induction of genotoxic stress, cells were treated with gemcitabine (LC Laboratories). […] The following plasmids were used: pFASTBAC-FLAG-rat PRMT1, pFASTBAC-FLAG-mouse PRMT4, and pGEX-GAR. The complete ORFs of human PRMT3 and PRMT6 were inserted into the pFASTBAC HT-3xFLAG B vector via BamHI/HindIII and BamHI/XhoI sites, respectively.
For PRMT protein expression in insect cells, recombinant baculovirus (bacmid) was generated using the Bac-to-Bac baculovirus system (Invitrogen). Sf9 cells were transfected with bacmid DNA using X-tremeGENE HP DNA transfection reagent (Sigma-Aldrich) according to the manufacturer's instructions. After 3–5 days, supernatants were collected, filtered, and used to infect Sf9 cells to amplify the virus. After 2 rounds of virus amplification and estimation of the final P3 virus titer, the P3 virus (2–5 μL/10^6 cells) was applied for large-scale infection of 200 × 10^6 Sf9 cells in suspension culture at a density of 1 × 10^6 cells/mL. Cells were harvested 5–6 days post-infection by centrifugation at 500 g for 5 min at room temperature. Protein purification from baculovirus-infected Sf9 cells was performed as previously described. , Cells were lysed in BC buffer (20 mM HEPES pH 7.9, 250 mM NaCl, 10% (v/v) glycerin, 0.4 mM EDTA, 1 mM DTT) containing a protease inhibitor cocktail (Roche) by 3 freeze-thaw cycles. After centrifugation at 11,000 rpm (Sorval SS34 rotor) and 4 °C for 1 h, the supernatant (whole cell protein extract) was incubated with anti-FLAG M2 Affinity Gel (Cytiva) at 4 °C and under agitation for 4 h. Subsequently, beads were washed in BC buffer containing various NaCl concentrations (once in BC with 1 M NaCl, twice in BC with 500 mM NaCl, twice in BC with 250 mM NaCl and twice in BC with 100 mM NaCl). FLAG-tagged proteins were either maintained bead-bound as a 50% (v/v) slurry in BC buffer with 100 mM NaCl and stored at −80 °C or were eluted in the appropriate elution buffer (depending on the subsequent assay) containing 0.25 mg/mL 3xFLAG peptides (Sigma-Aldrich) at 4 °C for 30–45 min. To remove the FLAG-peptides from the eluate, dialysis was performed in elution buffer containing 10% (v/v) glycerol at 4 °C for 4–6 h using Slide-A-Lyzer Dialysis Devices (Thermo Fisher Scientific) according to the manufacturer’s recommendations.
In the first step, the fluorogenic substrate Nα-Benzoyl-L-arginine-7-amido-4-methylcoumarin (Bz-Arg-AMC, Sigma-Aldrich) undergoes methylation by PRMTs upon the addition of the cofactor SAM. In the second reaction step, trypsin cleaves the nonmethylated substrate, leading to the generation of the 7-amino-4-methylcoumarin product, which can be quantified by subsequent fluorescence measurement (excitation: 355 nm, emission: 460 nm). The first reaction was conducted with bead-bound PRMTs at a total volume of 100 μL. Each condition was performed as a technical triplicate to determine the mean and the standard deviation. […] For the negative controls, SAM was substituted with assay buffer. The incubation was continued at 37 °C and under agitation (1,000 rpm) for a duration of 2 h.

Another assay has as its target T2, FLAG-tagged PRMT6 (Homo sapiens, UniProt Q96LA8).
T2 construct: The complete ORFs of human PRMT3 and PRMT6 were inserted; made in house; host or cells: Sf9 insect cells (baculovirus)
Nature of the assay: Fluorescence-based in vitro PRMT assay (F-PRMT assay), PRMT6. The settings on record: Table S3; 100 µM compound, vs solvent control = 100%, n≥3. Format: biochemical. An outline of the steps:
(§3)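 Baculovirus/Sf9-expressed FLAG-PRMTs (human PRMT3, PRMT6; mouse PRMT4), anti-FLAG purified and used bead-bound, methylated Bz-Arg-AMC with SAM for 2 h at 37 °C, 1,000 rpm. Technical triplicates; no-SAM negative controls.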

A further assay concerns the target T3, FLAG-tagged PRMT1 (Rattus norvegicus, UniProt Q63009).
T3 construct: Full-length FLAG-tagged PRMT protein; made in house; host or cells: Sf9 insect cells (baculovirus)
Nature of the assay: Fluorescence-based in vitro PRMT assay (F-PRMT assay), PRMT1. Format: biochemical.

The target in a further assay is T4, FLAG-tagged PRMT4 (Mus musculus, UniProt Q9WVG6).
T4 construct: Full-length FLAG-tagged PRMT protein; made in house; host or cells: Sf9 insect cells (baculovirus)
T4 sequence (Q9WVG6 1-608): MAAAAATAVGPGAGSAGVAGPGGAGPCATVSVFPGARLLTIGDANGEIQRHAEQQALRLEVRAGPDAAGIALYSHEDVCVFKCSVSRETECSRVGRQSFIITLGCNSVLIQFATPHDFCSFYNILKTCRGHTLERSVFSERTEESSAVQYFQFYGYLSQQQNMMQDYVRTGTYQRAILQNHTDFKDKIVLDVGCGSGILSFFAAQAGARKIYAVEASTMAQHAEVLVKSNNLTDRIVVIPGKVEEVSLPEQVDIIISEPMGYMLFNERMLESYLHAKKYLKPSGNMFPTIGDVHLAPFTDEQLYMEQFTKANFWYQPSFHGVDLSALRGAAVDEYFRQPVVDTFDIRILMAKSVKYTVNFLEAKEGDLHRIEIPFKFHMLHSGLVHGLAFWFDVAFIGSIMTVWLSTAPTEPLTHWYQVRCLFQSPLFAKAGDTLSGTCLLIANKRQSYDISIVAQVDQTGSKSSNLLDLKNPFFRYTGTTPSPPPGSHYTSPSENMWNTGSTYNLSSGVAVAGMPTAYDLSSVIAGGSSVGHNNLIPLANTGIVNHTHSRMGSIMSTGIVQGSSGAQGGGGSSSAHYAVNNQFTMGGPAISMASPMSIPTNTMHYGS
Nature of the assay: Fluorescence-based in vitro PRMT assay (F-PRMT assay), PRMT4. Format: biochemical. The settings on record: Table S3; 100 µM compound, vs solvent control = 100%, n≥3. An outline of the steps:
as §3

Where only a bound is given, the exact number is not on record here.

T3 sequence (Q63009 whole entry): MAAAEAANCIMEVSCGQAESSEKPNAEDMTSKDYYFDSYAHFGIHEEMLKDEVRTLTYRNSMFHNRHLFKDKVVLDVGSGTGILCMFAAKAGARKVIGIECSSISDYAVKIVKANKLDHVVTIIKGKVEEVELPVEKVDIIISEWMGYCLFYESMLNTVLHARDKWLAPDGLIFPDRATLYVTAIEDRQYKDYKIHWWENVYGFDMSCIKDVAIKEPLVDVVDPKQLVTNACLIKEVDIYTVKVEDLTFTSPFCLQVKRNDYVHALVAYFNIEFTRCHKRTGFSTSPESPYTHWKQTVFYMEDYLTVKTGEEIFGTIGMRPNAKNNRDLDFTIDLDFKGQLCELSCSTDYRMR
T2 sequence (Q96LA8 whole entry): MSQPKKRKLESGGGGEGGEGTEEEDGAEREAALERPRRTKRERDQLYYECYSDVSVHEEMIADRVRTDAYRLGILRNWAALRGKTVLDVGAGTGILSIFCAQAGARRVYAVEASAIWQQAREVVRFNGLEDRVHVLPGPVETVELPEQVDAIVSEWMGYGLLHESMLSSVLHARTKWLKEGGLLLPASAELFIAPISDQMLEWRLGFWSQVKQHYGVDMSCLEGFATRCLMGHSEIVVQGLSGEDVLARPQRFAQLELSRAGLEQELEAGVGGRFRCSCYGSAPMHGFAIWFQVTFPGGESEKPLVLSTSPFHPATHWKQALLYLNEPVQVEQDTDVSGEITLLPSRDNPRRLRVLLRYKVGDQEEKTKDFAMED

Take `CC(C)Oc1ccc(-c2c[nH]cc2CN(C)CCN)cc1` [MS023, reference compound]: the “gemcitabine-induced apoptosis, caspase 3/7 activity, co-treatment” value in the assay with PaTu8988T cells and in the assay on PANC-1 cells was “diminished” each time.
For the compound `O=C1NC(=O)c2ccccc2/C1=C/NCc1ccccc1` [TR-03, (Z)-4-[(Benzylamino)methylene]isoquinoline-1,3(2H,4H)-dione], the “Experimental result (PRMT3)” value at FLAG-tagged PRMT3 is reported as “n.e. (did not significantly affect the catalytic activity (less than ±6% change or not significant p-value), are marked with n.e. (no effect))”. Further, the “Experimental result (PRMT6)” value on FLAG-tagged PRMT6 is “n.e. (did not significantly affect the catalytic activity (less than ±6% change or not significant p-value), are marked with n.e. (no effect))”. In addition, the “effect on PRMT1 activity (in words)” value on FLAG-tagged PRMT1 (100 μM compound) is recorded as “slight inhibitory effect”. In addition, the “Experimental result (PRMT4)” value at FLAG-tagged PRMT4 is on record as “n.e. (did not significantly affect the catalytic activity (less than ±6% change or not significant p-value), are marked with n.e. (no effect))”.
`CN(C)Cc1cccc(N/C=C2\C(=O)NC(=O)c3ccccc32)c1` [TR-010]: at FLAG-tagged PRMT3 (mean % difference vs solvent control (100%)), the “Efficacy ±∆% (PRMT3)” value was “+45%”. Also, the “Experimental result (PRMT6)” value at FLAG-tagged PRMT6 is on record as “n.e. (did not significantly affect the catalytic activity (less than ±6% change or not significant p-value), are marked with n.e. (no effect))”. At FLAG-tagged PRMT1 (100 μM compound, increase over solvent-treated activity, read-out: enhancement (increase) of PRMT1 enzymatic activity), the activation at 100 µM is not below 60%. In addition, the “Efficacy ±∆% (PRMT1)” value at FLAG-tagged PRMT1 (Table S3, 100 µM compound, mean % difference vs solvent control (100%), n≥3) is recorded as “+75%”. In addition, the “Experimental result (PRMT4)” value at FLAG-tagged PRMT4 is recorded as “n.e. (did not significantly affect the catalytic activity (less than ±6% change or not significant p-value), are marked with n.e. (no effect))”.
Take `O=C1NC(=O)c2ccccc2/C1=C/Nc1ccccc1` [TR-014, (Z)-4-[(Phenylamino)methylene]isoquinoline-1,3(2H,4H)-dione]: the “Experimental result (PRMT3)” value on FLAG-tagged PRMT3 was “n.e. (did not significantly affect the catalytic activity (less than ±6% change or not significant p-value), are marked with n.e. (no effect))”. In addition, the “Experimental result (PRMT6)” value at FLAG-tagged PRMT6 is “n.e. (did not significantly affect the catalytic activity (less than ±6% change or not significant p-value), are marked with n.e. (no effect))”. Further, the “effect on PRMT1 activity (in words)” value on FLAG-tagged PRMT1 (100 μM compound) was “no significant effect”. Further, at FLAG-tagged PRMT1 (Table S3, 100 µM compound, vs solvent control = 100%, n≥3), the “Experimental result (PRMT1)” value is “n.e. (did not significantly affect the catalytic activity (less than ±6% change or not significant p-value), are marked with n.e. (no effect))”. At FLAG-tagged PRMT4, the “Experimental result (PRMT4)” value is “n.e. (did not significantly affect the catalytic activity (less than ±6% change or not significant p-value), are marked with n.e. (no effect))”.
